Results published in US20130217664A1, “NOVEL COMPOUNDS USEFUL FOR THE TREATMENT OF DEGENERATIVE AND INFLAMMATORY DISEASES” (priority 2012, published 2013).

Assays:
human JAK3 = target: T1, human JAK3 (Homo sapiens, UniProt P52333); assay: JAK3 inhibition assay; format: biochemical; conditions: recombinant human JAK3 catalytic domain; polyGT substrate
T1 construct: catalytic domain (amino acids 781-1124; catalog number PV3855); purchased Invitrogen PV3855
Method in brief: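 Radiometric kinase assay: 0.5 ng JAK3 with 2.5 μg polyGT in Tris pH 7.5/MgCl2 buffer, 1 μM ATP plus 0.25 μCi 33P-γ-ATP, 1% DMSO, 45 min at 30 °C, stopped with phosphoric acid.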

human TYK2 = target: T2, human TYK2 (Homo sapiens, UniProt P29597); assay: TYK2 inhibition assay; format: biochemical; conditions: recombinant human TYK2 catalytic domain, polyGT substrate
T2 construct: catalytic domain (amino acids 871-1187; catalog number 08-147); purchased Carna Biosciences 08-147
T2 sequence (P29597 871-1187): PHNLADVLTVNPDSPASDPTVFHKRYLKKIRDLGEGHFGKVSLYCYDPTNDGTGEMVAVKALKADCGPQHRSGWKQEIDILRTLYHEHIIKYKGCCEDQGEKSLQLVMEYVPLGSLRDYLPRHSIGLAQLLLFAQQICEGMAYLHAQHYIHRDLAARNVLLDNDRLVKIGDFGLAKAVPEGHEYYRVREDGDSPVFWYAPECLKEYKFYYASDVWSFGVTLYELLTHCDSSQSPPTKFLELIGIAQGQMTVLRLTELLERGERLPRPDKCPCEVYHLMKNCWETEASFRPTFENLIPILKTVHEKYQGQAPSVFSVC
Method in brief: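 Radiometric kinase reaction run 90 min at 30 °C, stopped with phosphoric acid, washed and scintillation-counted.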

CTLL-2 cell line = assay: CTLL2 viability assay; format: cell-based; conditions: Mus musculus, IL-2 dependent CTLL2 viability, 24 h, ATP-lite
From the text: The protocol describes the methods to analyse the activity of compounds on their ability to sustain the IL2-dependent viability of CTLL2.
Final DMSO concentration was 0.1%.

human JAK1 = target: T3, human JAK1 (Homo sapiens, UniProt P23458); assay: JAK1 inhibition assay (polyGT substrate / Ulight-JAK1 peptide); format: biochemical; conditions: recombinant human JAK1 catalytic domain; polyGT or Ulight-JAK1 peptide assay
T3 construct: catalytic domain, amino acids 866-1154; catalog number PV4774; purchased Invitrogen PV4774
Method in brief: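 Signal scaled between vehicle and 10 μM staurosporine. Radiometric polyGT reactions ran 45 min at 30 °C, counted after phosphoric-acid stop. Ulight peptide reactions ran 60 min at room temperature, fluorescence read after adding Eu-PT66 detection mix with EDTA.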

BA/F3 cell line = assay: BA/F3 viability assay; conditions: Mus musculus, BaF3, 48 h, read-out: BA/F3 IC50
human JAK2 = target: T4, human JAK2 (Homo sapiens, UniProt O60674); assay: JAK2 inhibition assay (polyGT substrate / Ulight-JAK1 peptide); format: biochemical; conditions: recombinant human JAK2 catalytic domain; polyGT or Ulight-JAK1 peptide assay
T4 construct: catalytic domain (amino acids 808-1132; catalog number PV4210); GST; purchased Invitrogen PV4210
Method in brief: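 Two JAK2 formats: a ^33P-ATP polyGT assay (1 μM cold ATP, 90 min, 30° C., cpm read-out) and a Ulight-JAK1 peptide assay read by Europium-anti-phosphotyrosine fluorescence after 60 min at room temperature.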

T1 sequence (P52333 781-1124): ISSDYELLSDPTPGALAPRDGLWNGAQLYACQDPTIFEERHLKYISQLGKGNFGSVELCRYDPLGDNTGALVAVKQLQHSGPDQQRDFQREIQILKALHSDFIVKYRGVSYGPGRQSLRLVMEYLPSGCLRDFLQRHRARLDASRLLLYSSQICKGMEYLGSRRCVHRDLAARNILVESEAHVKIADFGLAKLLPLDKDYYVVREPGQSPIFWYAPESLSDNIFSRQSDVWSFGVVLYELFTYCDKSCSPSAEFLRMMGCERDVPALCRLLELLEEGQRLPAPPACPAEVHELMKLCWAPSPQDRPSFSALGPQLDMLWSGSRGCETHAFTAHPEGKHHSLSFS
T3 sequence (P23458 866-1154): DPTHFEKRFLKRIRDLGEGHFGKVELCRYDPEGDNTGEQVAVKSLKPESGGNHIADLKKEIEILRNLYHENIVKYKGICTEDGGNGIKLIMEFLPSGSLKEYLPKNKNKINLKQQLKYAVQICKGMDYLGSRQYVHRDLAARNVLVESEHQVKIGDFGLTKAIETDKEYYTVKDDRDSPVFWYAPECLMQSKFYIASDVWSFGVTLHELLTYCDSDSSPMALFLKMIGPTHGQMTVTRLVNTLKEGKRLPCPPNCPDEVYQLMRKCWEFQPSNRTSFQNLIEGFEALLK
T4 sequence (O60674 808-1132): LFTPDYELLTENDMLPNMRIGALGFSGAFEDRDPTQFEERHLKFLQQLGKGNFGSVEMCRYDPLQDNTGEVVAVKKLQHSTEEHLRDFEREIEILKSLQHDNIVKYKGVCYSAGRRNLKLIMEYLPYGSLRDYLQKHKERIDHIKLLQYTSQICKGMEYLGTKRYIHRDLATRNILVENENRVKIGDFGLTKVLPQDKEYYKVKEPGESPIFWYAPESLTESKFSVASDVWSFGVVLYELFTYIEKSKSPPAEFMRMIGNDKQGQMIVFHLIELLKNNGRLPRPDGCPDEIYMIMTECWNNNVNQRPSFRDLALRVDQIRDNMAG

SMILES	IC50 (human JAK3)	IC50 (human TYK2)	IC50 (CTLL-2 cell line)	IC50 (human JAK1)	IC50 (BA/F3 cell line)	IC50 (human JAK2)
CCc1cc(C2CN(S(=O)(=O)C(F)F)C2)ccc1N(C)c1cc2c(cn1)ncn2C [Compound 354, {4-[1-(Difluoro-methanesulfonyl)-azetidin-3-yl]-2-ethyl-phenyl}-methyl-(1-methyl-1H-imidazo[4,5-c]pyridin-6-yl)-amine]	0.01 to 100 nM	0.01 to 100 nM	501 to 1000 nM	0.01 to 100 nM	1000 to 5000 nM	0.01 to 100 nM
CCc1cc(CN(C)S(C)(=O)=O)cc(F)c1N(C)c1cc2c(cn1)ncn2C [Compound 356, N-{3-Ethyl-5-fluoro-4-[methyl-(1-methyl-M-imidazo[4,5-c]pyridin-6-yl)-amino]-benzyl}-N-methyl-methanesulfonamide]	0.01 to 100 nM	0.01 to 100 nM	501 to 1000 nM	0.01 to 100 nM	1000 to 5000 nM	0.01 to 100 nM
CCc1cc(CN(CC#N)S(C)(=O)=O)cc(F)c1N(C)c1cc2c(cn1)ncn2C [Compound 357, N-Cyanomethyl-N-{3-ethyl-5-fluoro-4-[methyl-(1-methyl-1H-imidazo[4,5-c]pyridin-6-yl)-amino]-benzyl}-methanesulfonamide]	0.01 to 100 nM	0.01 to 100 nM	> 1000 nM	0.01 to 100 nM	1000 to 5000 nM	0.01 to 100 nM
CN(c1cc2c(cn1)ncn2C)c1ccc(CN(C)S(C)(=O)=O)cc1F [Compound 358, N-{3-Fluoro-4-[methyl-(1-methyl-1H-imidazo[4,5-c]pyridin-6-yl)-amino]-benzyl}-N-methyl-methanesulfonamide]	101 to 500 nM	101 to 500 nM	> 1000 nM	0.01 to 100 nM	> 5000 nM	0.01 to 100 nM
CN(c1cc2c(cn1)ncn2C)c1ccc(C2CN(C(=O)OC(C)(C)C)C2)cc1OC(F)F [Compound 362, 3-{3-Difluoromethoxy-4-[methyl-(1-methyl-1H-imidazo[4,5-]pyridin-6-yl)-amino]-phenyl}-azetidine-1-carboxylic acid tert-butyl ester]	> 1000 nM	> 1000 nM	> 1000 nM	501 to 1000 nM	> 5000 nM	> 1000 nM
CN(c1cc2c(cn1)ncn2C)c1ccc(C2CN(CC(F)(F)F)C2)cc1OC(F)F [Compound 364, {2-Difluoromethoxy-4-[1-(2,2,2-trifluoro-ethyl)-azetidin-3-yl]-phenyl}-methyl-(1-methyl-1H-imidazo[4,5-c]pyridin-6-yl)-amine]	101 to 500 nM	> 1000 nM	> 1000 nM	0.01 to 100 nM	> 5000 nM	101 to 500 nM
CN(c1cc2c(cn1)ncn2C)c1ccc(C2CN(S(=O)(=O)N(C)C)C2)cc1OC(F)F [Compound 369]	101 to 500 nM	101 to 500 nM	> 1000 nM	0.01 to 100 nM	1000 to 5000 nM	101 to 500 nM
CN(c1cc2c(cn1)ncn2C)c1ccc(C2CN(S(=O)(=O)C(F)F)C2)cc1OC(F)F [Compound 370, {4-[1-(Difluoro-methanesulfonyl)-azetidin-3-yl]-2-difluoromethoxy-henyl}-methyl-(1-methyl-1H-imidazo[4,5-c]pyridin-6-yl)-amine]	0.01 to 100 nM	101 to 500 nM	> 1000 nM	0.01 to 100 nM	1000 to 5000 nM	0.01 to 100 nM
CCc1cc(CNS(=O)(=O)N(C)C)ccc1N(C)c1cc2c(cn1)ncn2C [Compound 375, Dimethyl amino-N-{3-Ethyl-4-[methyl-(1-methyl-1H-imidazo[4,5-c]pyridin-6-yl)-amino]-benzyl}-sulfonamide]	101 to 500 nM	101 to 500 nM	> 1000 nM	0.01 to 100 nM	1000 to 5000 nM	0.01 to 100 nM
CCc1cc(CNS(=O)(=O)NC)ccc1N(C)c1cc2c(cn1)ncn2C [Compound 376, Methyl amino-N-{3-Ethyl-4-[methyl-(1-methyl-1H-imidazo[4,5-c]pyridin-6-yl)-amino]-benzyl}-sulfonamide]	101 to 500 nM	101 to 500 nM	> 1000 nM	0.01 to 100 nM	1000 to 5000 nM	0.01 to 100 nM
CCc1cc(CNC(=O)C2CCC(F)(F)CC2)ccc1N(C)c1cc2c(cn1)ncn2C [Compound 377, 4,4-Difluoro-cyclohexanecarboxylic acid 3-ethyl-4-[methyl-(1-methyl-1H-imidazo[4,5-c]pyridin-6-yl)-amino]-benzylamide]	> 1000 nM	> 1000 nM	> 1000 nM	0.01 to 100 nM	> 5000 nM	> 1000 nM
CCc1cc(CNCC(F)F)ccc1N(C)c1cc2c(cn1)ncn2C [Compound 379]	101 to 500 nM	101 to 500 nM	> 1000 nM	0.01 to 100 nM	> 5000 nM	101 to 500 nM
CCc1cc(CNCC(F)(F)F)ccc1N(C)c1cc2c(cn1)ncn2C [Compound 380]	101 to 500 nM	101 to 500 nM	> 1000 nM	0.01 to 100 nM	1000 to 5000 nM	0.01 to 100 nM
CCc1cc(CN2CC(C#N)C2)ccc1N(C)c1cc2c(cn1)ncn2C [Compound 381, 1-{3-Ethyl-4-[methyl-(1-methyl-1H-imidazo[4,5-c]pyridin-6-yl)-amino]-enzyl}-azetidine-3-carbonitrile]	> 1000 nM	501 to 1000 nM	> 1000 nM	0.01 to 100 nM	> 5000 nM	101 to 500 nM
CCc1cc(C2CCN(S(C)(=O)=O)CC2)ncc1N(C)c1cc2c(cn1)ncn2C [Compound 383, (4-Ethyl-1′-methanesulfonyl-1′,2′,3′,4′,5′,6′-hexahydro-[2,4′]bipyridinyl-5-yl)-methyl-(1-methyl-1H-imidazo[4,5-c]pyridin-6-yl)-amine]	501 to 1000 nM	501 to 1000 nM	> 1000 nM	0.01 to 100 nM	1000 to 5000 nM	101 to 500 nM
CCc1cc(C2(C#N)CC2)ccc1N(C)c1cc2c(cn1)ncn2C [Compound 385, 1-{3-Ethyl-4-[methyl-(1-methyl-1H-imidazo[4,5-c]pyridin-6-yl)-amino]-phenyl}-cyclopropanecarbonitrile]	0.01 to 100 nM	0.01 to 100 nM	> 1000 nM	0.01 to 100 nM	1000 to 5000 nM	0.01 to 100 nM
CCc1cc(C(CC#N)NS(C)(=O)=O)ccc1N(C)c1cc2c(cn1)ncn2C (stereo not drawn) [Compound 387, N-(2-Cyano-1-{3-ethyl-4-[methyl-(1-methyl-1H-imidazo[4,5-c]pyridin-6-yl)-amino]-phenyl}-ethyl)-methanesulfonamide]	101 to 500 nM	101 to 500 nM	> 1000 nM	0.01 to 100 nM	> 5000 nM	101 to 500 nM
CCc1cc(CN(CC#N)S(C)(=O)=O)ccc1N(C)c1cc2c(cn1)ncn2C [Compound 388, N-Cyanomethyl-N-{3-ethyl-4-[methyl-(1-methyl-1H-imidazo[4,5-c]pyridin-6-yl)-amino]-benzyl}-methanesulfonamide]	0.01 to 100 nM	0.01 to 100 nM	> 1000 nM	0.01 to 100 nM	1000 to 5000 nM	0.01 to 100 nM
